Results: patent US20160271251A1, “RADIOLUMINESCENT COMPOUND FOR RADIOTHERAPY AND DEEP PHOTODYNAMIC THERAPY AND DEVICE FOR DEEP PHOTODYNAMIC THERAPY” (SYNCHROTRON SOLEIL, priority 2013, published 2016)

Legend:
[1] = X-ray-excited luminescence (radioluminescence) spectrum; type: physicochemical; details: for emission band of X-ray-excited luminescence: c=177 mM
Source text: (§1) For the acquisition of these spectra, the two molecules are mixed in the same aqueous solvent. The energy of the X-ray radiation is generally comprised between 1 and 20 keV and selected so as to be higher than an absorption threshold of the radioluminescent molecule, so that the radioluminescent molecule absorbs the X-ray radiation of energy and emits a luminescence radiation in the visible domain.

[2] = UV-visible absorption spectrum of photosensitiser; type: physicochemical
Source text: as §1

In the case of [Cl][Gd]([Cl])[Cl] [GdCl3, gadolinium chloride], the “emission bands/peak of X-ray-excited luminescence” value ([1]; DMSO medium, EuCl3 c=96 mM, GdCl3 c=199 mM) is reported as “around 320 nm”.

With [Al].c1ccc2c(c1)-c1nc-2nc2[nH]c(nc3nc(nc4[nH]c(n1)c1ccccc41)-c1ccccc1-3)c1ccccc21 [Al(III)Phthalocyanine] the “absorption band superimposed with CeCl3 emission” value ([2]; aqueous medium, c=4 μM) was “around 350 nm”.

With [Cl][Eu]([Cl])[Cl] [EuCl3, europium chloride] the “most intense of the three peaks observed” value ([1]; DMSO medium (FIG. 7)) was 700 nm and the “most intense of the three peaks observed” value ([1]; aqueous medium (FIG. 2)) was 600 nm.

In the case of Oc1cccc(-c2c3nc(c(-c4cccc(O)c4)c4ccc([nH]4)c(-c4cccc(O)c4)c4nc(c(-c5cccc(O)c5)c5ccc2[nH]5)CC4)C=C3)c1 [mTHPC, meta-tetrahydroxyphenylchlorine], the “most intense absorption band” value ([2]; PEG:EtOH:H2O 3:2:5 v/v, c=0.49 μM) is reported as “around 400 nm”.

In the case of [Cl][Ce]([Cl])[Cl] [CeCl3, cerium chloride], the “emission band of X-ray-excited luminescence” value ([1]; PBS pH=7.4) is reported as 300-400 nm and the “emission band of X-ray-excited luminescence” value ([1]; PEG:EtOH:H2O 3:2:5 v/v, X-ray 1-20 keV) is reported as 300-400 nm.

In the case of chlorine e6, the “most intense absorption band” value ([2]; PBS pH=7.4, c=0.8 μM) is reported as “around 400 nm”.
